Assay results reported in patent US12440484B2, “1,3,4-oxadiazole homophthalimide derivative compounds as histone deacetylase 6 inhibitor, and the pharmaceutical composition comprising the same” (Chong Kun Dang Pharmaceutical Corp., priority 2019, dated 2025).

How the values were obtained:
HDAC6 human recombinant = HDAC6 human recombinant (Homo sapiens (Human), UniProt Q9UBN7); assay: HDAC enzyme activity inhibition (in vitro), HDAC6 assay; type: biochemical; details: samples at 0.1, 1, 10, 100 and 1000 nM; 37° C. 60 minutes; fluorescence Ex 390, Em 460
HDAC6 human recombinant, sequence (Q9UBN7 whole entry): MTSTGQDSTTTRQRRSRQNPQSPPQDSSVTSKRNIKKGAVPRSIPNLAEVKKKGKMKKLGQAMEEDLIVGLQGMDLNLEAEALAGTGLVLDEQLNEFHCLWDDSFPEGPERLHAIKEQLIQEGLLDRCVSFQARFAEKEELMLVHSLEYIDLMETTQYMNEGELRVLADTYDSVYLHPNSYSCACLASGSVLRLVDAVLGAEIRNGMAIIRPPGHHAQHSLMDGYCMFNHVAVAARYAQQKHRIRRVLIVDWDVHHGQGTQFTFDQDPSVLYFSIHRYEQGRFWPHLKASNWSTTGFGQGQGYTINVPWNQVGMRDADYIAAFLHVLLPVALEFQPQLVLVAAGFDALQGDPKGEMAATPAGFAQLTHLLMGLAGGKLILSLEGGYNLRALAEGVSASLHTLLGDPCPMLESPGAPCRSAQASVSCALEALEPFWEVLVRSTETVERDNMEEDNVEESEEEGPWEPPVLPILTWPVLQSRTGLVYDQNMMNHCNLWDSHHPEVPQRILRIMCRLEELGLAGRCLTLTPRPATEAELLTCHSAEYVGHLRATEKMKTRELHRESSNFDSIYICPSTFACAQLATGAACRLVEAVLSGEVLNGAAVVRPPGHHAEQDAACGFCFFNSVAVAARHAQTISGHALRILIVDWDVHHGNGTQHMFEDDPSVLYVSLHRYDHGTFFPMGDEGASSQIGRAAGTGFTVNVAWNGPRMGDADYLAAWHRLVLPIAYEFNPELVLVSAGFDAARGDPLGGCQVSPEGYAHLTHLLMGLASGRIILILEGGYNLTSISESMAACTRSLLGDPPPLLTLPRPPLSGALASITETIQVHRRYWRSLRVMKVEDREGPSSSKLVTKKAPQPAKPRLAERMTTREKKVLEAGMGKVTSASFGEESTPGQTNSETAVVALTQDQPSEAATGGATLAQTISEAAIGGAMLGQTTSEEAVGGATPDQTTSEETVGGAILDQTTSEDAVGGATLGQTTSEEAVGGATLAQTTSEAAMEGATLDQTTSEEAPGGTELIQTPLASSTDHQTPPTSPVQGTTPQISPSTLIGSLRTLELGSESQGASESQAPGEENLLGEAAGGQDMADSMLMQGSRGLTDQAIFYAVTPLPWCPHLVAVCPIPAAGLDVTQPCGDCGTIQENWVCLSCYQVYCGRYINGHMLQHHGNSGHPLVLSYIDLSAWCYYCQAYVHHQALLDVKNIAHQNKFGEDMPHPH

HDAC1 = HDAC1 (Homo sapiens (Human), UniProt Q13547); assay: HDAC enzyme activity inhibition (in vitro), HDAC1 Fluorimetric Drug Discovery Assay Kit; type: biochemical; details: samples at 100, 1000 and 10000 nM; 37° C. 60 minutes; fluorescence Ex 390, Em 460
HDAC1, sequence (Q13547 whole entry): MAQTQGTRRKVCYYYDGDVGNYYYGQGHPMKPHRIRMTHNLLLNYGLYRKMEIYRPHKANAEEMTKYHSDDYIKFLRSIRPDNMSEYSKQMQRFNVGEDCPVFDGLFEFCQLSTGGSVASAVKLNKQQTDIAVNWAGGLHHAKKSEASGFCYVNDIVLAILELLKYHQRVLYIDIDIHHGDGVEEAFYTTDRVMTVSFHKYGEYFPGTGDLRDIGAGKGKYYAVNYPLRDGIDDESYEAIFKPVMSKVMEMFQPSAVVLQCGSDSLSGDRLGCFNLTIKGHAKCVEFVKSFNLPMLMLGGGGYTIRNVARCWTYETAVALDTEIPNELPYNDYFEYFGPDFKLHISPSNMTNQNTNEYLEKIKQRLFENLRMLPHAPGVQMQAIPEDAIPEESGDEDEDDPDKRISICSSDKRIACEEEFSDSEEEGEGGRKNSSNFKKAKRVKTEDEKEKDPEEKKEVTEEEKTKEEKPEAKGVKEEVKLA

IC50 (HDAC6 human recombinant) [µM] | IC50 (HDAC1) [µM] | SMILES
0.069 | > 10 | CCCCN1CCN(c2ccc3c(c2)C(C)(C)C(=O)N(Cc2ccc(-c4nnc(C(F)F)o4)cn2)C3=O)CC1 [Compound 147, 6-(4-butylpiperazine-1-yl)-2-((5-(5-(difluoromethyl)-1,3,4-oxadiazole-2-yl)pyridine-2-yl)methyl)-4,4-dimethylisoquinoline-1,3(2H,4H)-dione]
0.026 | > 10 | COCCN1CCN(c2ccc3c(c2)C(C)(C)C(=O)N(Cc2ccc(-c4nnc(C(F)F)o4)cn2)C3=O)CC1 [Compound 35, 2-((5-(5-(difluoromethyl)-1,3,4-oxadiazole-2-yl)pyridine-2-yl)methyl)-6-(4-(2-methoxyethyl)piperazine-1-yl)-4,4-dimethylisoquinoline-1,3(2H,4H)-dione]
0.03 | > 10 | CC1(C)C(=O)N(Cc2ccc(-c3nnc(C(F)F)o3)cn2)C(=O)c2ccc(-c3ccoc3)cc21 [Compound 102, 2-((5-(5-(difluoromethyl)-1,3,4-oxadiazole-2-yl)pyridine-2-yl)methyl)-6-(furan-3-yl)-4,4-dimethylisoquinoline-1,3(2H,4H)-dione]
0.095 | > 10 | CC(C)CN1CCN(c2ccc3c(c2)C(C)(C)C(=O)N(Cc2ccc(-c4nnc(C(F)F)o4)cn2)C3=O)CC1 [Compound 149, 2-((5-(5-(difluoromethyl)-1,3,4-oxadiazole-2-yl)pyridine-2-yl)methyl)-6-(4-isobutylpiperazine-1-yl)-4,4-dimethylisoquinoline-1,3(2H,4H)-dione]
0.017 | > 10 | CN1CCN(c2ccc3c(c2)C(C)(C)C(=O)N(Cc2ccc(-c4nnc(C(F)F)o4)cn2)C3=O)CC12CC2 [Compound 80, 2-((5-(5-(difluoromethyl)-1,3,4-oxadiazole-2-yl)pyridine-2-yl)methyl)-4,4-dimethyl-6-(4-methyl-4,7-diazaspiro[2.5]octane-7-yl)isoquinoline-1,3(2H,4H)-dione]
0.038 | > 10 | CC1(C)C(=O)N(Cc2ccc(-c3nnc(C(F)F)o3)cn2)C(=O)c2ccc(C3=CCN(C4COC4)CC3)cc21 [Compound 43, 2-((5-(5-(difluoromethyl)-1,3,4-oxadiazole-2-yl)pyridine-2-yl)methyl)-4,4-dimethyl-6-(1-(oxetan-3-yl)-1,2,3,6-tetrahydropyridine-4-yl)isoquinoline-1,3(2H,4H)-dione]
0.018 | > 10 | CCN1CCN(c2ccc3c(c2)C(C)(C)C(=O)N(Cc2ccc(-c4nnc(C(F)F)o4)cn2)C3=O)CC1 [Compound 39, 2-((5-(5-(difluoromethyl)-1,3,4-oxadiazole-2-yl)pyridine-2-yl)methyl)-6-(4-ethylpiperazine-1-yl)-4,4-dimethylisoquinoline-1,3(2H,4H)-dione]
0.022 | > 10 | CC1(C)C(=O)N(Cc2ccc(-c3nnc(C(F)F)o3)cn2)C(=O)c2ccc(N3CC4(COC4)C3)cc21 [Compound 40, 2-((5-(5-(difluoromethyl)-1,3,4-oxadiazole-2-yl)pyridine-2-yl)methyl)-4,4-dimethyl-6-(2-oxa-6-azaspiro[3.3]heptane-6-yl)isoquinoline-1,3(2H,4H)-dione]
0.035 | > 10 | CN1CC=C(c2ccc3c(c2)C(C)(C)C(=O)N(Cc2ccc(-c4nnc(C(F)F)o4)cn2)C3=O)CC1 [Compound 42, 2-((5-(5-(difluoromethyl)-1,3,4-oxadiazole-2-yl)pyridine-2-yl)methyl)-4,4-dimethyl-6-(1-methyl-1,2,3,6-tetrahydropyridine-4-yl)isoquinoline-1,3(2H,4H)-dione]
0.011 | > 10 | CC(=O)N1CCN(c2ccc3c(c2)C(C)(C)C(=O)N(Cc2ccc(-c4nnc(C(F)F)o4)cn2)C3=O)CC12CC2 [Compound 81, 6-(4-acetyl-4,7-diazaspiro[2.5]octane-7-yl)-2-((5-(5-(difluoromethyl)-1,3,4-oxadiazole-2-yl)pyridine-2-yl)methyl)-4,4-dimethylisoquinoline-1,3(2H,4H)-dione]
0.038 | > 10 | CC1(C)C(=O)N(Cc2ccc(-c3nnc(C(F)F)o3)cn2)C(=O)c2cc(Br)ccc21 [Compound 51, 7-bromo-2-((5-(5-(difluoromethyl)-1,3,4-oxadiazole-2-yl)pyridine-2-yl)methyl)-4,4-dimethylisoquinoline-1,3(2H,4H)-dione]

Continued, compound first:

SMILES | IC50 (HDAC6 human recombinant) [µM] | IC50 (HDAC1) [µM]
O=c1c2ccccc2n(CCN2CCCCC2)c(=O)n1Cc1ccc(-c2nnc(C(F)F)o2)cn1 [Compound 9, 3-((5-(5-(difluoromethyl)-1,3,4-oxadiazole-2-yl)pyridine-2-yl)methyl)-1-(2-(piperidine-1-yl)ethyl)quinazoline-2,4(1H,3H)-dione] | 0.126 | > 10
O=c1c2ccccc2n(CCN2CCOCC2)c(=O)n1Cc1ccc(-c2nnc(C(F)F)o2)cn1 [Compound 20, 3-((5-(5-(difluoromethyl)-1,3,4-oxadiazole-2-yl)pyridine-2-yl)methyl)-1-(2-morpholinoethyl)quinazoline-2,4(1H,3H)-dione] | 0.159 | > 10
CCN1CCC(c2ccc3c(c2)C(C)(C)C(=O)N(Cc2ccc(-c4nnc(C(F)F)o4)cn2)C3=O)CC1 [Compound 59, 2-((5-(5-(difluoromethyl)-1,3,4-oxadiazole-2-yl)pyridine-2-yl)methyl)-6-(1-ethylpiperidine-4-yl)-4,4-dimethylisoquinoline-1,3(2H,4H)-dione] | 0.056 | > 10
CC1(C)C(=O)N(Cc2ccc(-c3nnc(C(F)F)o3)cn2)C(=O)c2c(-c3ccoc3)cccc21 [Compound 95, 2-((5-(5-(difluoromethyl)-1,3,4-oxadiazole-2-yl)pyridine-2-yl)methyl)-8-(furan-3-yl)-4,4-dimethylisoquinoline-1,3(2H,4H)-dione] | 0.059 | > 10
CC1(C)C(=O)N(Cc2ncc(-c3nnc(C(F)F)o3)cn2)C(=O)c2ccc(Br)cc21 [Compound 152, 6-bromo-2-((5-(5-(difluoromethyl)-1,3,4-oxadiazole-2-yl)pyrimidine-2-yl)methyl)-4,4-dimethylisoquinoline-1,3(2H,4H)-dione] | 0.125 | > 10
COc1ccc(Cn2c(=O)n(Cc3ccc(-c4nnc(C(F)F)o4)cn3)c(=O)c3cc(F)ccc32)cc1 [Compound 66, 3-((5-(5-(difluoromethyl)-1,3,4-oxadiazole-2-yl)pyridine-2-yl)methyl)-6-fluoro-1-(4-methoxybenzyl)quinazoline-2,4(1H,3H)-dione] | 0.216 | > 10
O=C1c2ccc(Br)cc2C2(CCCCC2)C(=O)N1Cc1ccc(-c2nnc(C(F)F)o2)cn1 [Compound 107, 6′-bromo-2′-((5-(5-(difluoromethyl)-1,3,4-oxadiazole-2-yl)pyridine-2-yl)methyl)-1′H-spiro[cyclohexane-1,4′-isoquinoline]-1′,3′(2′H)-dione] | 0.148 | > 10
CC(C)CN1CCC(c2ccc3c(c2)C(=O)N(Cc2ccc(-c4nnc(C(F)F)o4)cn2)C(=O)C3(C)C)CC1 [Compound 144, 2-((5-(5-(difluoromethyl)-1,3,4-oxadiazole-2-yl)pyridine-2-yl)methyl)-7-(1-isobutylpiperidine-4-yl)-4,4-dimethylisoquinoline-1,3(2H,4H)-dione] | 0.034 | > 10
CC1(C)C(=O)N(Cc2ccc(-c3nnc(C(F)F)o3)cn2)C(=O)c2ccc(-c3cccnc3)cc21 [Compound 104, 2-((5-(5-(difluoromethyl)-1,3,4-oxadiazole-2-yl)pyridine-2-yl)methyl)-4,4-dimethyl-6-(pyridine-3-yl)isoquinoline-1,3(2H,4H)-dione] | 0.02 | > 10
Cn1c(=O)n(Cc2ccc(-c3nnc(C(F)F)o3)cn2)c(=O)c2ccc(-c3ccncc3)cc21 [Compound 101, 3-((5-(5-(difluoromethyl)-1,3,4-oxadiazole-2-yl)pyridine-2-yl)methyl)-1-methyl-7-(pyridine-4-yl)quinazoline-2,4(1H,3H)-dione] | 0.033 | > 10
Cn1c(=O)n(Cc2ccc(-c3nnc(C(F)F)o3)cn2)c(=O)c2cc(-c3ccncc3)ccc21 [Compound 92, 3-((5-(5-(difluoromethyl)-1,3,4-oxadiazole-2-yl)pyridine-2-yl)methyl)-1-methyl-6-(pyridine-4-yl)quinazoline-2,4(1H,3H)-dione] | 0.035 | > 10
CC1(C)C(=O)N(Cc2ccc(-c3nnc(C(F)F)o3)cn2)C(=O)c2cc(C3=CCS(=N)(=O)CC3)ccc21 (stereo not shown) [Compound 126, 2-((5-(5-(difluoromethyl)-1,3,4-oxadiazole-2-yl)pyridine-2-yl)methyl)-7-(1-imino-1-oxydo-1,2,3,6-tetrahydro-1λ^6-thiopyran-4-yl)-4,4-dimethylisoquinoline-1,3(2H,4H)-dione] | 0.032 | > 10
O=c1c2ccccc2n(Cc2ccc(-c3nnc(C(F)F)o3)cn2)c(=O)n1CCc1ccccc1 [Compound 77, 1-((5-(5-(difluoromethyl)-1,3,4-oxadiazole-2-yl)pyridine-2-yl)methyl)-3-phenethylquinazoline-2,4(1H,3H)-dione] | 0.141 | > 10
CC1(C)C(=O)N(Cc2ccc(-c3nnc(C(F)F)o3)cn2)C(=O)c2ccc(C3CCN(C4CCC4)CC3)cc21 [Compound 64, 6-(1-cyclobutylpiperidine-4-yl)-2-((5-(5-(difluoromethyl)-1,3,4-oxadiazole-2-yl)pyridine-2-yl)methyl)-4,4-dimethylisoquinoline-1,3(2H,4H)-dione] | 0.025 | > 10
Cn1c(=O)n(Cc2ccc(-c3nnc(C(F)F)o3)cn2)c(=O)c2cc(Br)ccc21 [Compound 86, 6-bromo-3-((5-(5-(difluoromethyl)-1,3,4-oxadiazole-2-yl)pyridine-2-yl)methyl)-1-methylquinazoline-2,4(1H,3H)-dione] | 0.04 | > 10
